Test results reported in patent US20100196194A1, “METHOD FOR S[…] WITH OZONE” (BRADFORD I[…], priority 2006, published 2010).

Legend:
bacterial spores = assay: relation between ozone concentration and time needed for sterilization of bacterial spore samples; type: cell-based; conditions: ozone concentration 2-3 mgr/l (based on 1 atm), moisture content 60-80%
Protocol: Experimentally, the relation has been investigated between ozone concentration and the time needed for sterilization. A typical measurement procedure is as follows. A sample with bacterial spores is prepared, and exposed in the chamber 10 to an ozone-containing atmosphere with a specific temperature and air humidity, during a specific treatment time, after which the sample is removed from the chamber 10. […] Thus, a series of samples is treated, each time with different treatment times. To obtain a greater certainty, the measurements are repeated, which means that at a certain treatment time always multiple measurements are done with different samples.
The treated samples are subsequently placed in a conditioned breeding chamber, and it is monitored at which samples bacterial growth is and at which samples bacterial is not taking place. […]
The results obtained from the culture were correlated to the treatment times. For each value of the ozone concentration, it was assessed what the LONGEST treatment time was where bacterial growth was still observed: this treatment time was apparently insufficient to guarantee 100% elimination of the spores; this measurement point and all measurement points with shorter treatment times, in FIG. 2, are indicated with open circles. […]

[1] = system: spores of the bacterium Bacillus Atrophaeus; assay: sterilization of standard spore strips (10E6), growth check after 48 hours at 37° C. in tryptone soya broth; type: cell-based
Text: The FIGS. 3A-3B illustrate another experiment, executed on spores of the bacterium Bacillus Atrophaeus (previously known as Bacillus subtilis var. niger); from all bacterial spores, the spores of this bacterium Bacillus Astrophaeus are the most resistant to ozone. Use was made of standard spore strips with the qualification 10E6; these are strips on which in the order of 10^6 bacterial spores have been deposited. The used strips were obtained from the company Etigam BV in Apeldoorn, Netherlands. According to statement of the supplier, these spores were obtained from the American Type Culture Collection (ATCC) 9372.
In this experiment, the spore strips were submitted to a sterilization process, wherein the ozone concentration, the degree of humidity and the treatment time were measured. The spore strips were removed from the sterilization chamber, and than were stored for 48 hours at a temperature of 37° C. in a test tube filled with tryptone soya broth (“tryptone Soya Broth”, TSB). TSB is a standard nutrition medium, obtainable at Tritium-Microbiologie BV in Veldhoven, Netherlands, type indication T406.24.0005.
Each time, four spore strips were treated simultaneously. After the storage time of 48 hours, for each spore strip it was investigated whether bacterial spores had grown. If visually no bacterial growth could be detected, it was assumed that all spores of the relevant spore strip had been killed. If visually bacterial growth could be detected, the relevant spore strip was qualified as “insufficiently sterilized”. The results are presented in the FIGS. 3A and 3B, wherein FIG. 3A relates to measurements at an ambient temperature of 20° C. during the sterilization process and FIG. 3B relates to measurements at an ambient temperature of 30° C. during the sterilization process. The horizontal axis in the figures represents the measured degree of humidity in percentages, the vertical axis represents the time integral of the ozone concentration, indicated as ∫[O3], in units of gr·s/l. In the area 131, 100% of the bacterial spores of all four the test strips were always killed. In the area 132, each time one spore strip was insufficiently sterilized. In the area 133, each time two spore strips were insufficiently sterilized. In the area 134, each time three or four spore strips were insufficiently sterilized. The rectangular areas that are cut away from the top left of the graphs are areas belonging to test strips that were not analyzed.

O=[O+][O-] [ozone]
sterilization result in experimental set-up (bacterial spores): good results
degree of humidity giving optimal sterilization result ([1]; FIG. 3A, ambient temperature 20° C.): approximately 80 % RH
effect of increasing the ambient temperature on sterilization ([1]; ambient temperature increased to 30° C. (versus 20° C.)): favourable effect
effect of increasing the degree of humidity on sterilization ([1]; degree of humidity increased to 95%): did not give clear improvement
sterilization at low degree of humidity ([1]; less than 50% RH): no good sterilization proved to be possible
ozone performance equivalent OPEQ (minimum time integral of ozone concentration leading to 100% sterilization) ([1]; worst case 60% RH and 20° C., valid at all humidity above 60% RH, at 20° C. and 30° C.): 15 gr·s/l
